Measured values: patent publication US20250177399A1, “COMBINATION THERAPIES” (MIRATI THERAPEUTICS, INC., priority 2021, published 2025)
Read-outs that look alike come from different tables or passages of the source.

Assays:
LU99 tumors = assay: LU99 tumor model, Compound 478 and RO5126766 alone and in combination; format: in vivo, nude/nude mice; details: for Average Tumor Volumes of LU99 Tumor Bearing Mice: p.o. daily, Compound 478 30 mg/kg
Experimental: (§1) Immunocompromised nude/nude mice were inoculated in the right hind flank with cells or patient derived tumor samples harboring a KRas G12C mutation. When tumor volumes reach between 200-400 mm^3 in size, the mice were divided into four groups of 5-12 mice each. The first group was administered vehicle only. […] The fourth group was orally administered the single agent dose of the KRas G12C inhibitor in combination with the single agent dose of the MEK inhibitor at the matched schedule. […] Tumor volumes were measured using a caliper every two-three days and tumor volumes are calculated by the formula: 0.5×(Length×Width)2.

SW1573 tumors = assay: SW1573 tumor model, Compound 478 and RO5126766 alone and in combination; format: in vivo, nude/nude mice; details: Compound 478 100 mg/kg p.o daily, RO5126766 0.3 mg/kg p.o Q2D; for tumor growth inhibition: SW1573 tumors, at Day 20
Experimental: as §1

H2122 tumors [1] = assay: H2122 tumor model, Compound 478 and RO5126766 alone and in combination; format: in vivo, nude/nude mice; details: Compound 478 100 mg/kg p.o daily, RO5126766 0.3 mg/kg p.o Q2D; for tumor growth inhibition: H2122 tumors, at Day 21
Experimental: as §1

H2122 tumors [2] = details: for Average Tumor Volumes of H2122 Tumor Bearing Mice: Compound 478 100 mg/kg, trametinib 1 mg/kg
Experimental: Immunocompromised nude/nude mice were inoculated in the right hind flank with cells or patient derived tumor samples harboring a KRas G12C mutation. When tumor volumes reach between 200-400 mm^3 in size, the mice were divided into four groups of 5-12 mice each. The first group was administered vehicle only. […] The fourth group was orally administered the single agent dose of the KRas G12C inhibitor in combination with the single agent dose of the MEK inhibitor at the matched schedule. […] Tumor volumes were measured using a caliper every two-three days and tumor volumes are calculated by the formula: […].
For example, twenty nude/nude mice were inoculated in the right hind limb with 5×10^6 H2122 cells.

[3] = Study Day 1, RO5126766 0.3 mg/kg
[4] = Study Day 4, RO5126766 0.3 mg/kg
[5] = Study Day 9, RO5126766 0.3 mg/kg
[6] = Study Day 12, RO5126766 0.3 mg/kg
[7] = Study Day 15, RO5126766 0.3 mg/kg
[8] = Study Day 18, RO5126766 0.3 mg/kg

SMILES	Average Tumor Volumes of LU99 Tumor Bearing Mice (LU99 tumors; [3])	Average Tumor Volumes of LU99 Tumor Bearing Mice (LU99 tumors; [4])	Average Tumor Volumes of LU99 Tumor Bearing Mice (LU99 tumors; [5])	Average Tumor Volumes of LU99 Tumor Bearing Mice (LU99 tumors; [6])	Average Tumor Volumes of LU99 Tumor Bearing Mice (LU99 tumors; [7])	Average Tumor Volumes of LU99 Tumor Bearing Mice (LU99 tumors; [8])	tumor growth inhibition (SW1573 tumors)	Average Tumor Volumes of SW1573 Tumor Bearing Mice (SW1573 tumors; Study Day 0)	Average Tumor Volumes of SW1573 Tumor Bearing Mice (SW1573 tumors; Study Day 3)	Average Tumor Volumes of SW1573 Tumor Bearing Mice (SW1573 tumors; Study Day 7)	Average Tumor Volumes of SW1573 Tumor Bearing Mice (SW1573 tumors; Study Day 10)	Average Tumor Volumes of SW1573 Tumor Bearing Mice (SW1573 tumors; Study Day 13)	Average Tumor Volumes of SW1573 Tumor Bearing Mice (SW1573 tumors; Study Day 17)	Average Tumor Volumes of SW1573 Tumor Bearing Mice (SW1573 tumors; Study Day 20)	tumor growth inhibition (H2122 tumors [1])	Average Tumor Volumes of H2122 Tumor Bearing Mice (H2122 tumors [1]; Study Day 0)	Average Tumor Volumes of H2122 Tumor Bearing Mice (H2122 tumors [1]; Study Day 2)	Average Tumor Volumes of H2122 Tumor Bearing Mice (H2122 tumors [1]; Study Day 7)	Average Tumor Volumes of H2122 Tumor Bearing Mice (H2122 tumors [1]; Study Day 9)	Average Tumor Volumes of H2122 Tumor Bearing Mice (H2122 tumors [1]; Study Day 14)	further results
CNS(=O)(=O)Nc1nccc(Cc2c(C)c3ccc(Oc4ncccn4)cc3oc2=O)c1F [RO5126766, 3-[[3-fluoro-2-(methylsulfamoylamino)pyridin-4-yl]methyl]-4-methyl-7-pyrimidin-2-yloxychromen-2-one, reference compound]	232.1134 mm^3	247.33 mm^3	158.14 mm^3	126.8378 mm^3	181.1358 mm^3	200.6461 mm^3	51%	249.5609 mm^3	280.2067 mm^3	299.7596 mm^3	395.0633 mm^3	458.1809 mm^3	469.133 mm^3	480.1852 mm^3	59%	212.4101 mm^3	327.3898 mm^3	463.4062 mm^3	474.4923 mm^3	504.5922 mm^3	tumor regression (LU99 tumors; LU99 tumors, at Day 18, RO5126766 0.3 mg/kg, Compound 478 30 mg/kg p.o. daily): 12%; Average Tumor Volumes of H2122 Tumor Bearing Mice (H2122 tumors [1]; Study Day 17): 576.573 mm^3; Average Tumor Volumes of H2122 Tumor Bearing Mice (H2122 tumors [1]; Study Day 21): 772.6155 mm^3
CC(=O)Nc1cccc(-n2c(=O)n(C3CC3)c(=O)c3c(Nc4ccc(I)cc4F)n(C)c(=O)c(C)c32)c1 [Trametinib, N-(3-(3-cyclopropyl-5-((2-fluoro-4-iodophenyl)amino)-6,8-dimethyl-2,4,7-trioxo-3,4,6,7-tetrahydropyrido[4,3-d]pyrimidin-1 (2H)-yl)phenyl) acetamide, reference compound]	–	–	–	–	–	–	–	–	–	–	–	–	–	–	–	–	–	–	–	–	tumor growth inhibition (H2122 tumors [2]; H2122 tumors, at Day 32, trametinib 1 mg/kg p.o. daily): 60%; Average Tumor Volumes of H2122 Tumor Bearing Mice (H2122 tumors [2]; Study Day 1, p.o. daily): 301 mm^3; Average Tumor Volumes of H2122 Tumor Bearing Mice (H2122 tumors [2]; Study Day 3, p.o. daily): 385 mm^3; Average Tumor Volumes of H2122 Tumor Bearing Mice (H2122 tumors [2]; Study Day 7, p.o. daily): 447 mm^3; Average Tumor Volumes of H2122 Tumor Bearing Mice (H2122 tumors [2]; Study Day 10, p.o. daily): 462 mm^3; Average Tumor Volumes of H2122 Tumor Bearing Mice (H2122 tumors [2]; Study Day 15, p.o. daily): 534 mm^3; Average Tumor Volumes of H2122 Tumor Bearing Mice (H2122 tumors [2]; Study Day 17, p.o. daily): 582 mm^3; Average Tumor Volumes of H2122 Tumor Bearing Mice (H2122 tumors [2]; Study Day 21, p.o. daily): 667 mm^3; Average Tumor Volumes of H2122 Tumor Bearing Mice (H2122 tumors [2]; Study Day 24, p.o. daily): 778 mm^3; Average Tumor Volumes of H2122 Tumor Bearing Mice (H2122 tumors [2]; Study Day 28, p.o. daily): 673 mm^3; Average Tumor Volumes of H2122 Tumor Bearing Mice (H2122 tumors [2]; Study Day 32, p.o. daily): 816 mm^3
C=C(F)C(=O)N1CCN(c2nc(OC[C@@H]3CCCN3C)nc3c2CCN(c2cccc4cccc(Cl)c24)C3)C[C@@H]1CC#N [Compound 478]	228.8452 mm^3	282.5161 mm^3	219.8962 mm^3	252.5981 mm^3	416.0955 mm^3	495.1032 mm^3	52%	145.1243 mm^3	201.0648 mm^3	253.1608 mm^3	365.7683 mm^3	394.367 mm^3	486.729 mm^3	534.3942 mm^3	91%	213.447 mm^3	229.5648 mm^3	285.0973 mm^3	326.5344 mm^3	319.1401 mm^3	tumor growth regression (H2122 tumors [2]; H2122 tumors, day not given, Compound 478 100 mg/kg p.o. daily): 12%; Average Tumor Volumes of H2122 Tumor Bearing Mice (H2122 tumors [2]; Study Day 1, p.o. daily): 315 mm^3; Average Tumor Volumes of H2122 Tumor Bearing Mice (H2122 tumors [2]; Study Day 7, p.o. daily): 233 mm^3; Average Tumor Volumes of H2122 Tumor Bearing Mice (H2122 tumors [2]; Study Day 21, p.o. daily): 270 mm^3; Average Tumor Volumes of H2122 Tumor Bearing Mice (H2122 tumors [2]; Study Day 24, p.o. daily): 254 mm^3; Average Tumor Volumes of H2122 Tumor Bearing Mice (H2122 tumors [2]; Study Day 32, p.o. daily): 287 mm^3; Average Tumor Volumes of H2122 Tumor Bearing Mice (H2122 tumors [2]; Study Day 35, p.o. daily): 305 mm^3; Average Tumor Volumes of H2122 Tumor Bearing Mice (H2122 tumors [2]; Study Day 38, p.o. daily): 324 mm^3; Average Tumor Volumes of H2122 Tumor Bearing Mice (H2122 tumors [2]; Study Day 42, p.o. daily): 353 mm^3; Average Tumor Volumes of H2122 Tumor Bearing Mice (H2122 tumors [2]; Study Day 45, p.o. daily): 378 mm^3; Average Tumor Volumes of H2122 Tumor Bearing Mice (H2122 tumors [2]; Study Day 49, p.o. daily): 337 mm^3; Average Tumor Volumes of H2122 Tumor Bearing Mice (H2122 tumors [2]; Study Day 56, p.o. daily, dosing stopped on day 56): 371 mm^3; Average Tumor Volumes of H2122 Tumor Bearing Mice (H2122 tumors [2]; Study Day 63, after dosing stopped on day 56): 542 mm^3; Average Tumor Volumes of H2122 Tumor Bearing Mice (H2122 tumors [2]; Study Day 70, after dosing stopped on day 56): 802 mm^3; Average Tumor Volumes of H2122 Tumor Bearing Mice (H2122 tumors [2]; Study Day 77, after dosing stopped on day 56): 1073 mm^3; Average Tumor Volumes of H2122 Tumor Bearing Mice (H2122 tumors [2]; Study Day 85, after dosing stopped on day 56): 1294 mm^3; tumor growth inhibition (LU99 tumors; LU99 tumors, Day 18, Compound 478 30 mg/kg p.o. daily): 81%; Average Tumor Volumes of H2122 Tumor Bearing Mice (H2122 tumors [1]; Study Day 17): 378.2042 mm^3
